13 compounds from PubChem BioAssay (NCI) can be followed below.

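Exposure lasted 48 hours, with cells grown in 96-well plates and compounds tested at five concentrations. GI50 = concentration required for 50% inhibition of growth. TGI: concentration producing complete growth inhibition.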

Common to all, as to assay: NCI anticancer screen, dose series, 48 h
The subject of experiment [1] is SF-539 CNS.
For experiment [2], the system named is DU-145 prostate.
Experiment [3] deals with HCT-15 colon.
Experiment [4] concerns ACHN renal.
Experiment [5] deals with SF-268 CNS.
For experiment [6], the system named is UO-31 renal.
Experiment [7] deals with U251 CNS.
The test system of experiment [8] is M14 melanoma.
The subject of experiment [9] is EKVX NSCLC.
For experiment [10], the system named is MALME-3M melanoma.

On to `COc1c(C)c(C/C=C(\C)CC/C=C(\C)CCC=C(C)C)c(OC)c(OC)c1OC`, for which the TGI in experiment [1], in [2], in experiment [3], in experiment [4], in [5] and in [6] was over 100 µM throughout. Further, the TGI in experiment [7], in experiment [8] and in [9] was over 100 µM in each case.

On to `CO[C@H]1C[C@H](O[C@H]2CC[C@]3(C=O)[C@H]4CC[C@]5(C)[C@@H](C6=CC(=O)OC6)CC[C@]5(O)[C@@H]4CC[C@]3(O)C2)O[C@H](C)[C@H]1O`, for which the TGI in experiment [1] was 0.218 µM; in [10], 2.86 µM; in experiment [2] it was 0.462 µM; in experiment [3], 0.732 µM; in [4], 1.92 µM; in experiment [5], 0.577 µM. The TGI was found to be 2.53 µM in experiment [6], 2.63 µM in experiment [7], 4.19 µM in experiment [8] and 0.79 µM in experiment [9].

Turning to `O=C(Nc1cccc(-n2cc(-c3ccncc3)c(-c3ccc(O)c(Cl)c3)n2)c1)c1cccc(C(F)(F)F)c1`, the GI50 is 3.27 µM in experiment [1]; 5.59 µM in experiment [10]; 6.52 µM in experiment [2]; 1.98 µM in [3]; 3.71 µM in [4]; 7.11 µM in experiment [5]. Further, the GI50 in experiment [6] is 4.29 µM; in experiment [7], 2.14 µM; in [8], 2.72 µM. Besides, the TGI in [1], in [10], in experiment [2], in experiment [3], in [4] and in [5] was over 100 µM each time. In addition, the TGI in experiment [6], in experiment [7] and in experiment [8] was over 100 µM each time.

Take `O=[N+]([O-])c1cccnc1-n1cnc2ccccc21`: the TGI in experiment [1], in experiment [10], in [2], in experiment [3], in [5] and in experiment [7] was over 100 µM each time. Further, the TGI in experiment [8] and in experiment [9] was over 100 µM each time.

As for `Nc1ncnc2c1ncn2Cc1cccc(CCl)c1`, the TGI in experiment [1] was 33.4 µM; in experiment [10], 37.7 µM; in [2] it was 27.1 µM; in experiment [3], 41.7 µM; in experiment [4], 37.2 µM; in experiment [5], 32.4 µM. The TGI in experiment [6] came to 32.5 µM; in experiment [7], 32.5 µM; in [8], 29.7 µM; in [9] it was 37.1 µM.

Consider `CC1(C2CCC3(C)OC3C2)CO1` (stereo not given), for which the TGI in experiment [1], in experiment [10], in experiment [4], in [5], in experiment [6] and in experiment [7] was over 100 µM in each case. The TGI in experiment [8] and in experiment [9] was over 100 µM in each case.

As to `Nc1nc(Cl)cc(NCC2(O)CCCC2)n1`, the TGI in [1], in experiment [10], in experiment [2], in experiment [3], in experiment [4] and in experiment [5] was over 100 µM each time. Moreover, the TGI in experiment [6], in [7] and in experiment [9] was over 100 µM in each case.

Turning to `CC1OC2OC3C(OCC(O)C3O)OC(=O)[C@]34CCC(C)(C)CC3C3=CCC5[C@@]6(C)C[C@H](O)[C@H](OC7OC(CO)C(O)C(O)C7OC7OCC(OC(=O)CC(C)(O)CC(=O)OC1C(OC1OC(CO)C(O)C(O)C1O)C2O)C(O)C7O)[C@@](C)(CO)C6CC[C@@]5(C)[C@]3(C)CC4` (stereo not given in full), the TGI is 26.8 µM in experiment [1]; 17.5 µM in experiment [10]; 17.3 µM in experiment [2]; 22.5 µM in experiment [3]; 17.9 µM in [4]; 22.2 µM in [5]. For the same compound, the results for the TGI in [6], in [7] and in experiment [8] were 14.9 µM, 18.6 µM and 15 µM, respectively.

`CSc1ccc(/C=C2\N=C(c3ccccc3)N(/N=C/c3cc4cc(C)ccc4nc3Cl)C2=O)cc1`: the TGI came out at 43.3 µM in experiment [1]; 36 µM in [2]; 96.5 µM in experiment [3]; 35.1 µM in experiment [4]; 47.6 µM in experiment [5]; 33.4 µM in [6]. Further, the values for the TGI in [7], in experiment [8] and in [9] were 51.2 µM, 38.4 µM and over 100 µM, respectively.

As to `COc1ccc2nc3n(c2c1)CCc1cc(OC)c(OC)cc1-3`, the TGI in experiment [1], in experiment [10], in [2], in experiment [3], in experiment [4] and in experiment [5] was over 100 µM throughout. Besides, the TGI in experiment [7], in experiment [8] and in [9] was over 100 µM each time.

Turning to `CC1CC/C(=C\c2ccc(Cl)cc2)c2nc(N)c(C#N)c(-c3ccc(Cl)cc3)c21` (stereo not given), the TGI in experiment [1] is over 100 µM; in experiment [10], 62 µM; in experiment [3] it was over 100 µM; in [4], over 100 µM; in experiment [6], over 100 µM; in experiment [7], over 100 µM. Besides, the TGI in experiment [8] and in [9] was over 100 µM throughout.

On to `Cc1[nH]c(=O)[nH]c(=S)c1C(=O)Nc1cccc2cc3ccccc3cc12`, for which the TGI in experiment [10], in experiment [2], in experiment [3], in [4], in experiment [5] and in experiment [6] was over 100 µM throughout. Further, the TGI in experiment [7], in [8] and in [9] was over 100 µM in each case.

On to `C/C(Nc1ccc(Cl)cc1Cl)=C1/CCOC1=O`, for which the TGI in experiment [1] is 89.9 µM; in experiment [10], over 100 µM; in experiment [2] it was over 100 µM; in experiment [3], over 100 µM; in experiment [4], over 100 µM; in [5], 92.8 µM. In addition, the results for the TGI in experiment [6], in [7] and in [9] were over 100 µM, 66.5 µM and 73.9 µM, respectively.
